What was measured:
Type in all cases: cell-based, human
[1] = test system: cyclin B1 and p34-cdc2 kinase; assay: Immunoblot of cyclins, cyclin-associated kinases, inhibitors, p53; conditions: M1619
Description: The effect of antioxidants on expression of cell cyclins, cyclin-associated kinases, cell cycle inhibitors and IκBα was studied by incubating near confluent cell cultures with antioxidant treatments for 15 min-48 hours. Cells were lysed and protein levels were measured by immunoblot assay as described below. In other experiments, the ratio of phosphorylated-IκBα to total IκBα was determined by harvest of cytosolic protein 24 hours after treating cultures with 3,000 U/ml catalase.
Immunoassay for Proteins. Cells were lysed and proteins were isolated and quantitated by immunoassay as previously detailed, using 2 μg/ml of primary rabbit polyclonal antibodies against human p53, the cyclins D1, E, A and B1, the cyclin-associated kinases cdk2 and cdc2, the cyclin kinase inhibitors p21^WAF1/Cip1 and p27, and peroxidase-labeled donkey polyclonal anti-rabbit IgG. […] Cells were placed on ice, washed twice with cold DPBS, scraped into 0.5 ml boiling buffer (10% [vol/vol] glycerol and 2% [wt/vol] sodium dodecyl sulfate [SDS] in 83 mM Tris, pH 6.8) and sheared by four passages through a pipette. Aliquots were removed for protein determination, using the BCA protein assay (Pierce). […] Immunoblots were rinsed again as above and detected using an enhanced chemiluminescence method (ECL Western blotting detection system, Amersham Life Science, Buckinghamshire, England) and autoradiography. […]

M1619 cells = assay: DNA cell cycle analysis by flow cytometry; conditions: 3,000 U/ml catalase, 24 hours
Description: DNA Cell Cycle Measurements. To study the effect of antioxidant treatments on the DNA cell cycle, cells were grown to near confluence in 25 cm^2 plastic flasks and treated for 24 hours. Cells were typsinized, washed twice in cold DPBS with 1 mM EDTA and 1% bovine serum albumin (BSA), fixed 30 min in ice-cold 70% ethanol, and stained by incubation for 30 min at 37° C. in a 10 μg/ml solution of propidium iodide in DPBS and 1 mg/ml RNase A. DNA cell cycle measurements were made using a FACStar^PLUS Flow Cytometer (Becton-Dickenson, San Jose, Calif.).
Near confluent monolayers of M1619 cells were incubated in RPMI 1640 and 10% FBS in the presence or absence of 3,000 U/ml catalase. After 24 hours, cells were harvested, ethanol-fixed, permeabilized with proteinase K, stained with propidium iodide and subjected to DNA cell cycle analysis. Whereas a large fraction (30.2%) of untreated cells (FIG. 6A) were tetraploid, only 12.8% of catalase-treated cells (FIG. 6B) were tetraploid. […] G2-M was hidden by tetraploid G0-G1 or by debris and could not be analyzed.

[2] = test system: LNCaP.FGC prostate adenocarcinoma cells; assay: MTT proliferation assay, LNCaP.FGC prostate adenocarcinoma; conditions: Catalase 3000 U/ml; 10% FBS; 48 hours; mean±SE vs control
Description: Measurement of Proliferation in Cell Cultures. […] This assay empirically distinguishes between dead and living cells.
Cell Culture Treatments. The effect of antioxidant treatments on proliferation of malignant cell lines was studied in cultures stimulated with 10% FBS. Cell numbers were quantitated by the MTT assay 24-72 hours later. In some experiments, antioxidants were added immediately after cells were plated. In other experiments, cells were plated and allowed to grow for 24 hours before fresh media with antioxidants was added, and cell numbers were studied by the MTT assay 48 hours later.
Cells stimulated with 10% FBS were plated at a density of 50,000 cells per well. DMSO and antioxidants were added to cell wells at the indicated concentrations. […] Each value represents a mean of at least 4 experiments.

Catalase
expression of cyclin B1 and its associated kinase p34-cdc2 ([1]; 3,000 U/ml catalase): significant decrease | protein levels of cyclins D1, E, A, cdk2, p53, p21WAF1/Cip1, p27 ([1]; catalase-treated vs controls, data not shown): did not decrease | fraction of cells tetraploid (M1619 cells; untreated 30.2%): 12.8% | total percentage of cells in S-phase (M1619 cells; untreated 41.2%): 56.7% | Percent Growth Inhibition [2]: 43 ± 7
